Tests used:
K562 = assay: Iinhibitory activity against K562 leukemia cell line using sulforhodamine B (SRB) protein assay; assay type: functional, cell-based; details: Homo sapiens
HCT-15 (Homo sapiens) = assay: Inhibitory activity against HCT-15 colon cell line using sulforhodamine B (SRB) protein assay
MCF7 = assay: Inhibitory activity against MCF-7 breast cell line using sulforhodamine B (SRB) protein assay; assay type: functional, cell-based; details: Homo sapiens
U-251 = assay: Inhibitory activity against U251 CNS cell line using sulforhodamine B (SRB) protein assay; assay type: functional, cell-based; details: Homo sapiens
PC-3 = assay: Inhibitory activity against PC-3 prostate cell line using sulforhodamine B (SRB) protein assay; assay type: functional, cell-based; details: Homo sapiens
HCT-15 = assay: Inhibitory activity against HCT-15 colon cell line using sulforhodamine B (SRB) protein assay; assay type: functional, cell-based; details: Homo sapiens

SMILES | IC50 (K562) | IC50 (HCT-15 (Homo sapiens)) | IC50 (MCF7) | IC50 (U-251) | IC50 (PC-3) | IC50 (HCT-15)
COc1cccc2c1CCCN1C(=O)[C@@H](Oc3ccccc3)[C@]21SC | 23 µM | 19 µM | 33 µM | 25 µM | 21 µM | –
CS[C@@]12c3cc(C)n(-c4ccc(I)cc4)c3CC(C)(C)CN1C(=O)[C@H]2Oc1ccccc1 | > 100 µM | – | > 100 µM | 40 µM | 87 µM | > 100 µM
CS[C@@]12c3cc(C)oc3CC(C)(C)CN1C(=O)[C@H]2Oc1ccccc1 | 31 µM | – | 47 µM | 47 µM | 53 µM | 56 µM
CS[C@@]12c3cc(C)sc3CC(C)(C)CN1C(=O)[C@H]2Oc1ccccc1 | 39 µM | – | 41 µM | 33 µM | 11 µM | 26 µM
COc1cccc2c1C(=O)c1c(O)c3c(c(O)c1C2=O)C[C@@](O)(C(=O)CO)C[C@@H]3O[C@H]1C[C@H](N)[C@H](O)[C@H](C)O1 [DOXORUBICIN] | 0.28 µM | – | – | 0.09 µM | 32 µM | 0.23 µM

Reference: ChEMBL document CHEMBL1135156, “Synthesis of novel furo, thieno, and benzazetoazepines and evaluation of their cytotoxicity” (Bioorg Med Chem Lett, 2002)
